Data as given in US10092000B2, “Structure, synthesis, and applications for oligo phenylene ethynylenes (OPEs)” (STC.UNM, priority 2010, dated 2018).
Where “and” joins values, the source holds several entries; their conditions need not be identical. Identical values can stand only once. Entries after “also recorded” stand apart in the source; their conditions may differ.

Tests used:
[1] = tested on: E.coli, S.epidermis, and S.aureus; assay: Dead/live assays, biocidal activity stated without singling out a bacterium; assay type: cell-based; details: UV irradiation
Experimental: (§1) Dead/live assays were performed to test the biocidal activity of EO-OPE-1(C3, A), EO-OPE-1 (C2, A), EO-OPE-1 (C3, S) and EO-OPE-1 (Th, C3, A) against E.coli, S.epidermis, and S.aureus. E.coli, S.epidermis, and S.aureus were cultured in 50 mL of Difco™ Nutrient broth (LOT 4057492, Becton, Dickinson and Company, Sparks, Md. 21152 USA), Difco™ Nutrient broth (LOT 4057492, Becton, Dickinson and Company, Sparks, Md. 21152 USA), and BBL™ Brain Heart Infusion (LOT 8263271, Becton, Dickinson and Company, Sparks, Md. 21152 USA), respectively, for 18 h at 37° C. under shaking. The bacteria were collected by centrifuging 50 mL of culture at 4,000 rpm in an Eppendorf centrifuge for 15 min at 4° C. The pellet was re-suspended with the assistance of vortex in 25 mL of 0.85% NaCl solution and repelleted. The wash cycle was repeated twice. Bacterial concentrations were measured and normalized using a disposal hemocytometer (INCYTO Co., Ltd), counts being 2.5˜3.0×10^7/mL. The diluted bacteria suspension was added to 1.5 mL of black and transparent microtubes in aliquots of 500 μL for dark and light samples, respectively. Three groups of live controls were prepared with cells suspended in black microtubes, transparent microtubes, and quartz cuvettes at the same concentrations, but without chemicals. These bacteria samples were titrated by OPEs with various concentrations followed by staying in dark for dark samples/controls and exposing to UV irradiation in a photoreactor chamber for light samples/controls with certain duration.
(§2) Dead/live assays were carried out using two sets of stains: SYTO 9/Propidium iodide for E.coli and SYTO 24/Propidium iodide for S.epidermis and S.aureus. SYTO 9 and SYTO 24 are cell membrane permeant nucleic acid stains with green (˜498 nm for SYTO 9 and ˜515 nm for SYTO 24) fluorescence and used to stain both live and dead cells; Propidium iodide is a red-fluorescent nucleic acid stain that is membrane impermeable to viable cells but stains DNA or RNA of dead cells with comprised membranes and emits red (˜617 nm) fluorescence, indicating cell death. Upon the completion of the above treatment, a 1 to 1 ratio mixture of the two dyes was prepared and added into the samples (2.4 μL mixed dyes for 500 μL suspension) and incubated for 15 minutes in the dark. Bacteria were then examined under a 40× oil objective on a Zeiss LSM 510 Meta confocal laser scanning microscope and an Accuri C6 flow cytometer to identify and quantify those live and dead bacteria.

Solubility in solvents = assay type: physicochemical
[2] = Absorption and fluorescence spectroscopy; assay type: physicochemical; details: for absorbance intensity after 30 min relative to that measured at 1 min: 10 μM in H2O
Experimental: (§3) Photophysical study. For the absorption and fluorescence spectroscopy, we prepared a stock solution with concentration of 1 mM oligomer and 10% v/v solution of DMSO in H2O. 30 μL of the sonicated suspension of each EO-OPE-1 was diluted into 3 mL solution in a quartz cuvette to give a concentration of 10 μM. Absorption and fluorescence were performed on plate reader (SpectroMax M-5 microplate reader, Molecular Devices) at 24° C. Transient absorption spectra were recorded for EO-OPE-1 samples in both methanol and water. Transient absorption spectra were collected using laser systems that are described elsewhere 1, 2. The optical density was adjusted to 0.7 at the excitation wavelength (355 nm) with the laser energy being 6-7 mJ. Solutions were purged with argon for […] before making transient absorption spectroscopy measurements.

[3] = Transient absorption spectroscopy (triplet state); assay type: physicochemical
Experimental: as §3
Singlet oxygen generation. Excited triplet state (ETS) plays an essential role in the generation of ROS and 1O2. […] Another important point to note is that all members of EO-OPE-1 series underwent fast photobleaching in water during TA experiments (approximately 40-50% reduction in signal intensity). To minimize the error due to photobleaching, fresh samples were prepared and used in each run. […] On the other hand, the triplet lifetimes for EO-OPE-1(C3, A), EO-OPE-1 (C2, A), EO-OPE-1 (C3, S), and EO-OPE-1 (Th, C3, A) are 5.2 μs, 17.9 μs, 18.7 μs, and 7.2 μs, respectively. Based on the above discussions, we would expect C will give a higher yield of 1O2, with lower yields for EO-OPE-1 (C2, A), EO-OPE-1(C3, A), and EO-OPE-1 (C3, S).

bacteriophage MS2 = assay: Phage inactivation, phage titer (PFU), MS2; assay type: cell-based; details: 10 ug/ml, UV-light, 1 hour
Experimental: Bacteriophage Preparation and Titer. E. coli cells were grown in the standard Luria broth. The fresh E. coli culture was inoculated from an overnight culture followed by approximately three hours incubation at 37° C. to the exponential growth phase (O.D.600˜0.5). At this growth phase, the E. coli cells were collected by centrifuge and washed with Escherichia coli minimal medium (Glucose 5 g/L, Na2HPO4 6 g/L, KH2PO4 3 g/L, NH4Cl 1 g/L, NaCl 0.5 g/L, MgSO4, 0.12 g/L, CaCl2 0.01 g/L, pH 7.2) twice. The cell pellet was resuspended with minimal medium. The phage stock solutions were added into their corresponding bacterial host suspensions the phage-bacteria mixture incubated for 15 minutes at 37° C. for infection. The phage-bacteria mixture was transferred into fresh Escherichia coli minimal medium and incubated overnight for viral replication. […] The phage titer was determined by plaque forming units (PFU). […] After 6˜8 hours incubation, the plaque forming units were counted and phage solutions were diluted to 10^6˜10^7 PFU/ml with the minimal medium for further use.
Phage Inactivation. […] The viral inactivation ability was determined by phage titer as stated above and calculated by log (N0/N), where N is the PFU of the phage solution after exposure to CPEs/OPEs; N0 represents the PFU of corresponding negative control (without CPEs, OPEs or UV-irradiation). […]

[4] = tested on: MS2 and T4 bacteriophages; assay: Antiviral activity, general statement; assay type: cell-based
S.aureus = assay: Dead/live assay, biocidal activity against S.aureus; assay type: cell-based; details: for light activated death of S. aureus: light and dark conditions, 0.1 to 5 μg/mL, various time points (FIGS. 22-25)
Experimental: as §1, §2
Experiments similar to those described in Example 1 above were performed using TM and OPE1-DABCO against S. Aureus. FIG. 22 is a graph showing TM vs. 7×10^7/mL S. aureus under light and dark conditions at concentrations of 0.1 and 1 μg/mL and at various time points (5, 10, 15, 30, 45, and 60 minutes). FIG. 23 is a graph showing EO-OPE1-DABCO vs 6×10^7/mL S. aureus under light and dark conditions at different concentrations of 0.1, 1, and 5 μg/mL and at various time points. FIG. 24 is a graph showing EO-OPE1-DABCO vs S. Aureus under light and dark conditions at a concentration of 1 μg/mL and at various time points. FIG. 25 is a graph showing EO-OPE1-DABCO vs S. Aureus under light and dark conditions at different concentrations of 0.1 and 1 μg/mL and at various time points.

E.coli = assay: Dead/live assay, biocidal activity against E.coli; assay type: cell-based; details: under 365 nm radiation
Experimental: (§4) Dead/live assays were performed to test the biocidal activity of EO-OPE-1(C3, A), EO-OPE-1 (C2, A), EO-OPE-1 (C3, S) and EO-OPE-1 (Th, C3, A) against E.coli, S.epidermis, and S.aureus. E.coli, S.epidermis, and S.aureus were cultured in 50 mL of Difco™ Nutrient broth (LOT 4057492, Becton, Dickinson and Company, Sparks, Md. 21152 USA), Difco™ Nutrient broth (LOT 4057492, Becton, Dickinson and Company, Sparks, Md. 21152 USA), and BBL™ Brain Heart Infusion (LOT 8263271, Becton, Dickinson and Company, Sparks, Md. 21152 USA), respectively, for 18 h at 37° C. under shaking. The bacteria were collected by centrifuging 50 mL of culture at 4,000 rpm in an Eppendorf centrifuge for 15 min at 4° C. […] Bacterial concentrations were measured and normalized using a disposal hemocytometer (INCYTO Co., Ltd), counts being 2.5˜3.0×10^7/mL. […]
(§5) Dead/live assays were carried out using two sets of stains: SYTO 9/Propidium iodide for E.coli and SYTO 24/Propidium iodide for S.epidermis and S.aureus. SYTO 9 and SYTO 24 are cell membrane permeant nucleic acid stains with green (˜498 nm for SYTO 9 and ˜515 nm for SYTO 24) fluorescence and used to stain both live and dead cells; Propidium iodide is a red-fluorescent nucleic acid stain that is membrane impermeable to viable cells but stains DNA or RNA of dead cells with comprised membranes and emits red (˜617 nm) fluorescence, indicating cell death. […]

S.epidermis = assay: Dead/live assay, biocidal activity against S.epidermis; assay type: cell-based, Staphylococcus epidermis; details: under 365 nm radiation
Experimental: as §4, §5

C[N+](C)(C)CCCOc1ccc(C#Cc2ccc(C#Cc3ccc(OCCC[N+](C)(C)C)cc3)cc2)cc1.[I-].[I-] [EO-OPE-1 (C3, A)]
light-induced biocidal activity [1]: dramatic light-induced biocidal activity
solubility in CH3OH (Solubility in solvents): moderately soluble
solubility in DMF and DMSO (Solubility in solvents): quite soluble
solubility in water (Solubility in solvents): poorly soluble
absorbance intensity after 30 min relative to that measured at 1 min [2]: around 2 times
Fluorescence quantum yields(Φf)* ([2]; in water): 0.52 ± 0.05
Fluorescence quantum yields(Φf)* ([2]; in water; A)): 0.59
transient absorption (TA) intensity, comparison in words [3]: comparable
τ3/intensity in H2O ([3]; in H2O): 0.07
τ3/λmax(nm) in H2O ([3]; in H2O): 545 nm
τ3/μs in H2O (triplet lifetime) ([3]; in H2O): 17.9 μs
τ3/μs in H2O (triplet lifetime) ([3]; in H2O; A)): 5.2 μs
inactivation of MS2 phage in the presence of UV irradiation (bacteriophage MS2): enhanced inactivation
antiviral activity [4]: significant antiviral activity

C[N+](C)(C)CCOc1ccc(C#Cc2ccc(C#Cc3ccc(OCC[N+](C)(C)C)cc3)cc2)cc1.[I-].[I-] [EO-OPE-1 (C2, A)]
light-induced biocidal activity [1]: dramatic light-induced biocidal activity
solubility in CH3OH (Solubility in solvents): moderately soluble
solubility in DMF and DMSO (Solubility in solvents): quite soluble
solubility in water (Solubility in solvents): poorly soluble
absorbance intensity after 30 min relative to that measured at 1 min [2]: the same
Fluorescence quantum yields(Φf)* ([2]; in water): 0.59 ± 0.05
transient absorption (TA) intensity, comparison in words [3]: comparable
τ3/intensity in H2O ([3]; in H2O): 0.065
τ3/λmax(nm) in H2O ([3]; in H2O): 541 nm
τ3/μs in H2O (triplet lifetime) ([3]; in H2O): 17.9 μs and 18.7 μs

CCCCCC[N+]12CC[N+](CCCOc3ccc(C#Cc4ccc(C#Cc5ccc(OCCC[N+]67CC[N+](CCCCCC)(CC6)CC7)cc5)cc4)cc3)(CC1)CC2.[Br-].[Br-].[Br-].[Br-] [EO-OPE-1-DABCO]
light activated death of S. aureus (S.aureus): light activated death is clearly demonstrated

O=S(=O)([O-])CCCOc1ccc(C#Cc2ccc(C#Cc3ccc(OCCCS(=O)(=O)[O-])cc3)cc2)cc1.[Na+].[Na+] [EO-OPE-1 (C3, S)]
killing of E. coli (E.coli): kill
killing of S. epidermis (S.epidermis): kill
killing of S. aureus (S.aureus; under 365 nm radiation): kill
light-induced biocidal activity [1]: dramatic light-induced biocidal activity; also recorded: relatively poor light-induced biocidal activity
solubility in CH3OH (Solubility in solvents): moderately soluble
solubility in DMF and DMSO (Solubility in solvents): quite soluble
solubility in water (Solubility in solvents): poorly soluble
absorbance intensity after 30 min relative to that measured at 1 min [2]: 1.5 times
Fluorescence quantum yields(Φf)* ([2]; in water): 0.46 and 0.50 ± 0.07
transient absorption (TA) intensity, comparison in words [3]: comparable
τ3/intensity in H2O ([3]; in H2O): 0.06
τ3/λmax(nm) in H2O ([3]; in H2O): 543 nm

COc1cc(C#Cc2ccc(C#Cc3ccc(OCCC[N+](C)(C)C)cc3)cc2)cc(OC)c1OC.[I-] [TM]
light activated death of S. aureus (S.aureus): light activated death is clearly demonstrated
